# Reference: patent US11730689B2, “Process for treating hair” (Davines S.p.A., priority 2018, dated 2023)
# What was measured:
# [1] = Color fastness to washing (Example 1): evaluation of rinsing waters; design: species or system human; settings: 5 g of 2% water solution, 10 minutes at room temperature; rinsed 5 times with Sodium Laureth-2 Sulfate solution pH 7.5; FIG. 1; six swatches incl. non-treated
# Method: The coloring formulation was applied in a quantity sufficient to color all the fibers of the swatches, then wrapped in an aluminum foil and left on for 35 minutes.
# Afterwards, the swatches were rinsed with Davines SOLU shampoo of the Essential Hair Care line, directly on the previously wet swatches and rinsed for 30 seconds in order to remove the mixture.
# Then, swatches are treated as follows:
# 5 g of 2% liposol maleate (Sabinsa Corporation) water solution,
# 5 g of 2% Olaplex® Bond Multiplier No 1 water solution.
# A non-treated swatch is used as reference.
# The specific treatments are left on hair fora period of 10 minutes at room temperature.
# After 10 minutes, the swatches are rinsed 5 times with a Sodium Laureth-2 Sulfate (Zetesol Les 2/SL®) solution to pH 7.5. The rinsing procedure consists on providing 1.5 g of the surfactant solution per swatch, putting it on the swatch, and massaging for 10 seconds, then rinsing.
# The rinsing treatment is carried out dipping the individual swatch for 10 times in a beaker containing 100 g water, in order to collect the rinsing water.
# [2] = Protection of hair from bleaching treatment (Example 4), sensorial analysis; settings: 3.5 g of a 12% water solution added to bleaching powder + Activator 40 vol. mixture; 30 minutes, treatment done twice
# Method: The following specific compositions were separately added to the mixture:
# a) 3.5 g of a 12% Liposol maleate (Sabinsa Corporation) water solution;
# b) 3.5 g of a 12% On Protection (7% Liposol maleate and 13% maleic) water solution;
# e) 3.5 g of a 12% Olaplex® Bond Multiplier No 1 water solution;
# The swatches were left on for 30 minutes at room temperature wrapped in an aluminum foil.
# After that, the swatches were rinsed using cold running water and carefully washed using Davines SOLU shampoo of the Essential Hair Care line.
# After the left on period, the swatches were rinsed using cold running water for removing the mixture and further treated with Davines SOLU shampoo of the Essential Hair Care line.
# Then, 2.5 g of the conditioner MOMO of the Essential Hair Care line are applied; left on for one minute and subsequently rinsed using cold running water.
# Finally, the swatches were towel dried, dried with an airdryer and combed using a fine-tooth comb.
# [3] = Hair resistance to bleaching treatment (Example 5), tensile strength test; settings: 9 g (maleic acid, liposol maleate: 20% water solution) added to 20 g bleaching powder + 40 g Activator 40 vol.; 50 minutes; On Protection = 13% maleic acid and 7% Liposol maleate; five measurements, 6 cm hair, 0.5 mm/sec
# Method: Five swatches of hair, weight and length standard, level 5, are treated with the coloration Davines Mask With Vibrachrom 4.0 mixed with the activator Davines Activator 20 vol., emulsion containing hydrogen peroxide, in a ratio of 1:1.5 as disclosed in the Davines manual and left on at room temperature for 35 minutes in a ratio of 1:1.5 as disclosed in the Davines manual.
# During the left on period, the swatches were wrapped up in tinfoil and left at room temperature. After that, the swatches were rinsed with abundant running water and then washed with the Essential Hair Care SOLU shampoo of Davines line, washed and carefully dried with an airdryer.
# At the end of the coloring process, the bleaching treatment starts.
# Every swatch is decolored with 20 g of the bleaching powder Davines Mask Hair Bleaching Powder mixed with 40 g Davines Activator 40 vol.
# Before application on the swatches, the mixtures are singularly added with the following solutions:
# 9 g Liposol maleate (Sabinsa Corporation)—20% water solution,
# 9 g Olaplex® Bond Multiplier No 1,
# During the bleaching process, all the swatches are wrapped up in tinfoil, and left on for 50 minutes at room temperature.
# After the left on period, the swatches are shampooed using Davines Hair Care DEDE shampoo and combed using a large-tooth comb.
# A tensile strength test was carried out on all single swatches. […]
# [4] = Hair fastness and easy bleaching (Example 7), tensile strength test; design: species or system human; settings: 120 minutes
# Method: Four swatches of human hair, weight and length level 5, are used.
# The swatches are bleached using a mixture of 20 g Davines Mask Hair Bleaching Powder and 40 g Davines Activator 20 vol. to which the following compounds are added:
# b) 3.5 g 12% Liposol maleate (Sabinsa Corp.) in water,
# c) 3.5 g 12% Olaplex® Bond Multiplier No 1 in water,
# During the bleaching process, all the swatches are wrapped up in aluminum foil, and afterward they are left on for 120 minutes at room temperature.
# After the left on period, every swatch is rinsed with abundant running water and washed with a Sodium Lauth-2 sulfate (Zetesol Les 2/SL®) 15% water solution and to a pH 7.5, and dried by combing with a large-tooth comb.
# The swatches are subsequently washed until a complete removal of the product.
# The Tensile Strength Test was made with a dynamometer Texture Analysis Plus (Extended Height) using pneumatic clamps.
# The tensile strength of hair treated with different compositions was compared with the tensile strength of the non-bleached virgin swatch (positive reference) and the tensile strength of the swatch treated only with Davines Mask Hair Bleaching Powder without a protective agent (negative reference). Five measurements for each single 6 cm long hair, and at constant rate of 0.5 mm/sec., were made.
# [5] = Reducing treatment: curl resistance to repeated washings (Example 8); settings: 1.8 ml added to 100 ml Balance Curling System #1 and to 100 ml Bouclè neutralizer (maleic acid, liposol maleate as 20% solution); 40 washings with 15% Sodium laureth-2 sulfate pH 7.5
# Method: 1) 100 ml Davines Balance Curling System #1,
# 3) 100 ml Davines Balance Curling System #1 added with 1.8 ml of a Liposol maleate 20% solution (Sabinsa Corporation),
# (§1) 4) 100 ml Davines Balance Curling System #1 added with 1.8 ml of Olaplex® Bond Multiplier No 1,
# The above described reducing formulations (2 ml per hair swatch) were applied and left on for 30 minutes.
# After the left on period, the swatches were washed with hot running water for one minute and left 10 minutes towel dried on air without any treatment, in order to stabilize the treatment.
# Five neutralizing solutions are prepared:
# 1) 100 ml neutralizing solution Davines Bouclè Biowaving System Extra Delicate Neutralizer hydrogen peroxide 2.1%,
# 3) 100 ml neutralizing solution Davines Bouclè Biowaving System Extra Delicate Neutralizer added with 1.8 ml of Liposol Maleate 20% water solution (Sabinsa Corporation),
# 4) 100 ml neutralizing solution Davines Bouclè Biowaving System Extra Delicate Neutralizer added with 1.8 ml Olaplex® Bond Multiplier No 1,
# Every swatch is left on for 10 minutes at room temperature.
# Directly on the swatches and without rinsing, the neutralizing treatment is repeated in the same way, leaving on for other 10 minutes, for total 20 minutes.
# After the left on period, the formulation in excess is rinsed with running water and the curlers are dried with a drier for 30 minutes. […]
# [6] = Reducing treatment: hair conditioning (Example 9), evaluation by skilled technicians; design: species or system human; settings: 5 g of 2% water solution (On Protection: 10% in method, 2% in results), 2 x 7.30 minutes after reducing treatment; 5 washings
# Method: The coloring formulation was applied mixed with Davines Activator 20 vol., hydrogen peroxide emulsion, according to the Davines operating manual, in a 1:1.5 ratio.
# The color was carefully applied in a quantity sufficient to color all the fibers of the swatches, then left on for 35 minutes at room temperature.
# After that, the swatches were carefully rinsed with SOLU shampoo of the Essential Hair Care Davines line, in order to eliminate the excess color.
# 5 grams per swatch of the reducing formulation Davines Balance Curling System #1 are applied on the wet and towel dried swatches, and left on for 30 minutes.
# After the left on period, the swatches are washed with water and ready to be treated with:
# 1) 5 g of maleic 2% water solution,
# 2) 5 g Liposol Maleate (Sabinsa Corporation) 2% water solution,
# 3) 5 g Olaplex® Bond Multiplier No 1, 2% water solution,
# All the swatches are left on at room temperature for 7.30 minutes.
# This treatment is repeated without rinsing, directly on the swatches, for 7.30 minutes (overall 15 minutes).
# After the left on time, the swatches are rinsed with running water to eliminate the excess product.
# (§2) Then, the swatches are carefully washed with a Sodium Laureth-2 sulfate (Zetesol Les 2/SL®) 15% and to a pH of 7.5. […]
# [7] = Sensory properties of hair treated with a reducing treatment after coloring (Example 10); settings: 5 g of 2% water solution, 2 x 7.30 minutes after bleaching, coloring and reducing treatment; washed with Sodium Laureth-2 sulfate 15% pH 7.5
# Method: Four swatches of level 7 natural hair, standard weight and width, are bleached two times using the Davines Mask Hair Bleaching Powder mixed with an activator, hydrogen peroxide emulsion, Davines Activator 40 vol. in a 1:2 ratio.
# The above described mixture is applied on single swatches in order to obtain a homogenous distribution of the product on the hair fibers.
# The swatches are covered with an aluminum foil and left on for 50 minutes at room temperature. At the end of the left on period, the swatches are rinsed and carefully washed with a shampoo of the Davines Essential Hair Care SOLU line and dried. The entire process is repeated two times until to obtain the lightening level 11 according to Davines Color Manual.
# The swatches as above treated are colored with Davines Mask with Vibrachrom 10.01 mixed with Davines Activator 20 vol. in a ratio 1:1.5 as disclosed in the Davines manual.
# The coloration was applied to every swatch in an amount to obtain an homogeneous distribution of the product on all the hair fibers of the single swatch.
# At the end of the coloration step, after rinsing with shampoo SOLU of the Essential Hair Care line of Davines and drying, the swatches are treated with 5 g of the Davines reducing formulation called Balance Curling System #1 and left on for 30 minutes at room temperature.
# Then, the swatches are rinsed with water and treated as follows: […]
# [8] = Color retention after reducing treatment (Example 11), evaluation by skilled technicians; design: species or system human; settings: added to reducing composition and to neutralizing solution (1.8 ml per 100 ml) and applied afterwards as solution in 45 ml water, 7.5 minutes
# Method: Five hair samples from a human subject having a standard weight and a width and level 7 are colored with a Davines Mask with Vibrachrom 3.51. The coloring formulation was applied mixed with Davines Activator 20 vol., hydrogen peroxide emulsion, according to Davines operating manual, in a 1:1.5 ratios. The color was carefully applied in a quantity sufficient to give a homogeneous color to all fibers of the swatches. The mixture was left on for 35 minutes at room temperature.
# After that, the swatches were carefully rinsed with shampoo Davines SOLU of the Essential Hair Care line, in order to eliminate the excess color.
# After the left on period, the swatches were treated with the following reducing compositions:
# 1) 100 ml Davines Balance Curling System #1
# as §1
# On the wet and towel dried swatches, 5 grams of the above described reducing formulations are applied per swatch, and then left on for 30 minutes.
# After the left on period, the swatches are washed with hot running water for 1 minute and left 10 minutes towel dried on air without any treatment, in order to stabilize the treatment.
# Five neutralizing solutions are prepared: […]
# The swatches were evaluated from skilled technicians as follows:
# [9] = Hair resistance to reducing treatment (Example 12), tensile strength test
# Method: Five level 5 natural hair swatches, weight and width standard, are washed with Essential Hair Care SOLU shampoo.
# Then, the swatches are towel dried with adsorbing paper for removing excess water and subsequently enrolled on 1 cm diameter curlers.
# 2 ml of Davines Balance Curling System #1 perm are applied on all the curlers using a spout dispenser and left on for 30 minutes.
# After that, every curler is rinsed with abundant water for 1 minute using cold running water.
# Then, the swatches are neutralized using different neutralizing solutions:
# 2.5 g Davines Bouclè Biowaving System Extra Delicate Neutralizer (hydrogen peroxide 2.1%),
# 2.5 g liposol maleate (Sabinsa Corp.) 2% water solution,
# 2.5 g Olaplex® Bond Multiplier No 1, 10% water solution,
# The swatches are left on for 7.30 minutes at room temperature.
# Without rinsing, directly on the swatches, the application of the neutralizing solutions is repeated according to the same procedure for other 7.30 minutes, totally 15 minutes.
# After the left on period, the excess product is rinsed with cold running water and the curlers are dried in an oven ISCO at 53° C.±1 for 4 hours.
# The swatches are removed from the curlers and the curl sinuosity is evaluated using a camera.
# as §2
# Then, the tensile strength was evaluated. […]
# [10] = Water solubility; format: physicochemical
Compound,limpidity / color intensity of the rinsing water (ranking) [1],"silkiness, smoothness and compactness of the swatches (sensorial analysis, ranking) [2]",Tensile Strength N [3] [N],"Tensile Strength N ([4]; 3.5 g 12% in water added to 20 g bleaching powder + 40 g Activator 20 vol., On Protection = 12% Liposol maleate + 8% maleic acid, five measurements, 6 cm hair, 0.5 mm/sec) [N]",resistance to hair breakage in comparison to other treatments (in words) ([4]; 3.5 g 12% in water added to bleaching mixture),maintenance of the deviousness of the curls after repeated washings (ranking by skilled personnel) [5],softness and silkiness (ranking by skilled technicians) [6],chromatic differences / color retention [7],color retention after the reducing treatment (evaluated by skilled technicians) [8],"Tensile Strength N ([9]; 2.5 g as neutralizing solution after perm (maleic acid, liposol maleate 2%; Olaplex, On Protection 12% liposol maleate/8% maleic acid 10% water solution), 2 x 7.30 minutes, 40 washings) [N]",protection of the swatches (conclusion in words) ([9]; in comparison with Olaplex® Bond Multiplier No 1 and Davines Bouclè Biowaving System Extra Delicate Neutralizer),solubility in water [10]
"CN(C)CCNC(=O)CCCCC1CCSS1.O=C(O)/C=C\C(=O)O (stereo not drawn) [Liposol maleate, 1,2-dithioane-3-pentanamide, N-(2-dimethylamino) ethyl salified with a mole of maleic acid]",third,"better in relation to compactness, silkiness and smoothness",0.98 ± 0.11,1.06 ± 0.13,clearly show an improvement,maintain the deviousness of the curls in a lower degree,regard as preferred,do not present significant chromatic differences,more intensive and vibrating,1.04 ± 0.16,more protected,–
"O=C(O)/C=C\C(=O)O [maleic acid, cis-butendioic acid]",–,–,–,–,–,–,–,–,–,–,–,water soluble
